We go through one compound from paper PMC9699003, “Arene Variation of Highly Cytotoxic Tridentate Naphthoquinone-Based Ruthenium(II) Complexes and In-Depth In Vitro Studies” (Pharmaceutics, 2022).

The subject of data set [1] is A549 non-small cell lung cancer cells. Description: MTT assay (cytotoxicity). The format is cell-based, human. The method, then:
(§1) CH1/PA-1 ovarian teratocarcinoma cells (provided by L. R. Kelland, CRC Centre for Cancer Therapeutics, Institute of Cancer Research, Sutton, UK; confirmed by STR profiling as PA-1 ovarian teratocarcinoma cells at Multiplexion, Heidelberg, Germany), SW480 colon carcinoma and A549 non-small cell lung cancer cells (both obtained from the American Type Culture Collection, Manassas, VA, USA) were grown as adherent cultures in 75 cm² culture flasks (CytoOne, Starlab, Hamburg, Germany) by using minimal essential medium (MEM) supplemented with 1 mM sodium pyruvate, 4 mM L-glutamine, 1% (v/v) nonessential amino acids from 100-fold stock (all purchased from Sigma-Aldrich) and 10% heat-inactivated fetal bovine serum (BioWest, Nuaillé, France). Cells were maintained under standard culture conditions with 5% CO2 at 37 °C in a humidified atmosphere.
(§2) The 3-(4,5-dimethylthiazol-2-yl)-2,5-diphenyl-2H-tetrazolium bromide (MTT, Acros Organics, Geel, Belgium) assay was used to detect the cytotoxicity of the compounds after 24 h and 96 h incubation. In brief, cells were harvested from culture flasks and the following cell numbers (each in 100 µL) were seeded into 96-well culture plates (CytoOne, tissue culture treated, Starlab, Hamburg, Germany) for 24 h incubation: 1 × 10^4 (CH1/PA-1), 1 × 10^4 (SW480) and 1.5 × 10^4 (A549) cells per well; and for 96 h incubation: 1 × 10^3 (CH1/PA-1), 2 × 10^3 (SW480) and 3 × 10^3 (A549) cells per well. After 24 h, cells resuming their exponential growth rate were treated with test compounds at nine concentrations obtained by serial two-fold dilution. Stock solutions were prepared in DMSO (20 mM or 40 mM) and diluted in supplemented MEM. An amount of 100 µL of each concentration was added to the plates in triplicates and cells were exposed for 24 or 96 h. Afterward, the medium was replaced with 100 µL of MTT solution (5 mg/mL) in phosphate-buffered saline (PBS, Sigma-Aldrich), diluted 1:7 in RPMI 1640 medium (supplemented with 4 mM L-glutamine and 10% heat-inactivated FBS). Upon cell-viability-dependent conversion of the yellow, water-soluble tetrazolium salt into purple formazan products for 4 h, the crystals were dissolved in 150 µL DMSO. The absorbance of the resulting solutions, which is directly proportional to the number of viable cells, was measured at 550 nm (and at 690 nm as a reference) with a microplate reader (ELx808, BioTek, Winoosky, VT, USA) and Gen5TM 3.08 software (BioTek). Blank-corrected optical densities were subjected to graphical evaluation and interpolation of IC50 values. At least three biologically and technically independent experiments were performed.
A general note: Tetrazolium dyes change colour on reduction, which living cells bring about.

The subject of data set [2] is CH1/PA-1 ovarian teratocarcinoma cells. The experiment in a line: MTT assay (cytotoxicity). To be noted: CH1/PA-1, MTT. The class given is cell-based, human. As for the experimental part: as §1, §2
The test system of data set [3] is SW480 colon carcinoma cells. Description: MTT assay (cytotoxicity). The class given is cell-based, human. The method, then: as §1, §2
The test system of data set [4] is SW480 cells. The experiment in a line: Cellular ruthenium accumulation (ICP-MS). The class given is cell-based, human. Particulars: SW480, 2 h incubation, 37 °C. As for the experimental part:
SW480 cells were seeded at densities of 1.8 × 10^5 cells/well in 12-well plates (CytoOne, tissue culture treated) in 1 mL of supplemented MEM per well. (As CH1/PA-1 cells tend to detach during the required washing steps, cellular accumulation studies were performed only in SW480 cells). After 24 h, compounds dissolved in DMSO and diluted in MEM were added to the cells to final concentrations of 2 µM and 5 µM, and cells were incubated at 37 °C for 2 h. During incubation, the cell number was determined from three control wells of a plate seeded in parallel to the treatment plates. After the 2 h incubation, the medium was removed and all wells were washed with 3 × 1 mL PBS, and cells were lysed by adding 400 µL HNO3 per well for 1 h at room temperature. An amount of 300 µL of each lysate was added to 7.7 mL MilliQ water to get a total volume of 8 mL, and determination of the ruthenium content was carried out by ICP-MS. The measured amount of accumulated metal was normalized to the cell number and results were given in fg [Ru]/cell from at least three independent experiments. An Agilent 7800 ICP-MS instrument (Agilent Technologies, Tokyo, Japan) equipped with an Agilent SPS 4 autosampler (Agilent Technologies, Tokyo, Japan) was used to determine the ruthenium content. The ICP-MS parameters were tuned on a daily base to achieve high sensitivity. The ICP-MS was equipped with a MicroMist nebulizer with a sample uptake rate of ∼0.2 mL/min and standard nickel cones. The Agilent MassHunter software package (Workstation Software, Version C.01.04, 2018) was used for data evaluation. The instrumental parameters can be found in the supplementary information (Table S9).

Data set [5] has as its system SW480 cells. Description: Apoptosis assay (annexin V-FITC/PI, flow cytometry). Particulars: SW480, 24 h; for early apoptotic cells / late apoptotic cells / necrotic cells / viable cells: mean ± SD.
Experimental: Cell death induction was quantitatively analyzed via flow cytometry using double staining with FITC-conjugated annexin V (eBioscience, San Diego, CA, USA) and propidium iodide (PI, 1.0 mg/mL, Sigma-Aldrich). SW480 cells were seeded into 24-well plates (7 × 10^4 cells/well) in 600 µL MEM per well and allowed to settle for 24 h. Afterward, cells were exposed to two or three different concentrations (0.1–100 µM) of the compounds (based on their cytotoxic activity) for 24 h. After treatment, the medium was collected, and cells were washed once with 37 °C warm PBS and harvested. Following trypsinization, the cell suspension was added to the pre-collected medium and cells were centrifuged (300 g, 3 min). The supernatant was removed, and the cell pellet was resuspended with 1.5 µL FITC-conjugated annexin V in 150 µL binding buffer (10 mM HEPES/NaOH pH 7.4, 140 mM NaCl and 2.5 mM CaCl2) and incubated at 37 °C for 15 min. An amount of 1 µL of propidium iodide (PI, Thermo Fisher) was added shortly before flow-cytometric analysis using a Guava easyCyte 8HT instrument (Merck Millipore, Burlington, MA, USA) with InCyte software. Results were quantified by using the FlowJo software (TreeStar). At least three independent experiments were conducted.

For `CC1=C([O-])C([O-])(n2cccn2)c2ccccc2C1=O.Cc1c(C)c(C)c(C)c(C)c1C.[Ru+2]` (stereo not drawn) [Compound 6], the IC50 in data set [1] (24 h exposure) is 38 ± 21 µM; in data set [1] (96 h exposure) it was 3.4 ± 0.6 µM; in data set [2] (24 h exposure), 57 ± 16 µM; in data set [2] (96 h exposure), 35 ± 4 µM; in data set [3] (24 h exposure), 2.8 ± 1.6 µM; in data set [3] (96 h exposure), 0.27 ± 0.06 µM. For the same compound, the “Ru [102]/cell (cellular accumulation)” value in the data set on SW480 cells [4] (2 µM) stood at 100 ± 15 fg; in the data set with SW480 cells [4] (5 µM) it was 206 ± 32 fg. Also, the early apoptotic cells was 1.0 ± 0.7% in the data set on SW480 cells [5] (0.1 µM), 1.1 ± 07% in the data set with SW480 cells [5] (1 µM) and 1.1 ± 0.3% with SW480 cells [5] (10 µM). Further, the late apoptotic cells turned out to be 4.7 ± 2.8% with SW480 cells [5] (0.1 µM), 2.0 ± 0.7% in the data set on SW480 cells [5] (1 µM) and 3.7 ± 0.1% in the data set on SW480 cells [5] (10 µM). Also, the necrotic cells in the data set on SW480 cells [5] (0.1 µM) is listed as 17 ± 27%; with SW480 cells [5] (1 µM), 1.0 ± 1.3%; in the data set with SW480 cells [5] (10 µM), 0.94 ± 0.52%. Also, the viable cells is 77 ± 29% in the data set on SW480 cells [5] (0.1 µM), 96 ± 2% in the data set with SW480 cells [5] (1 µM) and 94 ± 0% in the data set on SW480 cells [5] (10 µM). The “Apoptosis / necrosis induction (in words)” value in the data set with SW480 cells [5] (concentrations covering the IC50 range) was “neither apoptotic nor necrotic cells exceeded the percentages in untreated controls”.

A word on the IC50: it is the midpoint of a concentration-inhibition curve.
